Key:
Format in all cases: cell-based
BDNF = experiment: RT-PCR gene expression of BDNF in ligustilide-treated ADSCs; conditions: for BDNF expression level (Image J): ADSCs, 24 hours
Experimental: (§1) ADSCs were cultured in the K-SFM as prepared in Example 1 at 37° C. in 5% CO2. The ADSCs were divided into […], and each group was treated with different concentrations (0, 0.625, 1.25, 2.5, 5 and 10 μg/ml) of (Z)-ligustilide for 24 hours, respectively.
(§2) The culture medium were removed from each group of stem cells in Experiment (1), then 1 ml of TRIzol reagent (Invitrogen) was added into each well and incubated at room temperature for 5 minutes. The stem cells were scraped by using a spatula and placed into a 1.5 ml microtube. Then, the cells were lysed completely, and 0.2 ml of trichloromethane (CHCl3) was added into the microtube. The microtube was shaken up and down for 15 seconds and incubated at room temperature for 2 to 3 minutes. The mixture was centrifuged (at 12000 g for 15 minutes at 4° C.). The supernatant was transferred into another 1.5 ml microtube, and 0.5 ml of isopropanol was added therein and mixed completely. The mixture was incubated at room temperature for 10 minutes and then centrifuged (at 12000 g for 10 minutes at 4° C.). The supernatant was removed. The remained sediment was washed with 1 ml of 75% ethanol-containing DEPC water (i.e. diethylpyrocarbonate-treated H2O) and centrifuged (7500 g at 4° C. for 5 minutes) again. The supernatant was removed. The remained sediment was dried by vacuum-pumping. The dried sediment was dissolved in about 0.01 ml to 0.02 ml of DEPC water to obtain total RNA of ADSCs of experimental group and blank group, respectively. The absorbance at a wavelength of 260 nm (OD260) of the samples were determined by a spectrophotometer (DU-800, Beckman) to evaluate the concentration of RNA. Then, the RNA was stored at −80° C. and used in the following Experiment (3).
(§3) The effects of ligustilide on increasing the expression of differentiation-promoting genes (e.g., BDNF and NURR1), increasing the expression of homing-promoting genes (e.g., CXCR4 and SDF1αβ), and decreasing the expression of inflammatory genes (e.g., IL-6 and IL-8) was analyzed by reverse transcription polymerase chain reaction (RT-PCR), wherein the gene expression of glyceraldehyde 3-phosphate dehydrogenase (GAPDH) was served as a control group, and the steps were described as follows.
(§4) The total RNA provided in the above Experiment (2) was reverse transcribed into cDNA. 2.5 μl of each primer (10 pM) shown in Table 1A, 7.5 μl of ddH2O, and 12.5 μl of EconoTaq® PLUS GREEN 2X Master Mix (Lucigen, Middleton, Wis., USA) were mixed with 2.5 μl of the cDNA. The mixture was placed in a RT-PCR machine. The reaction conditions were set as follows: i) 94° C. for 30 seconds, 55° C. for 30 seconds, and […], with 30 cycles of the aforesaid steps; ii) 72° C. for 10 minutes; and iii) cooling to 4° C. to stop the reaction
(§5) The obtained RT-PCR product was analyzed by 1.5% agarose gel electrophoresis for 30 minutes (voltage: 100 volts (V)). Then, the gel was placed in and stained with ethidium bromide (EtBr) for 10 minutes, and photographed by a gel image documentation system (DOC PRINT DP-001FDC, VilberLourmat France).

NURR1 = experiment: RT-PCR gene expression of NURR1 in ligustilide-treated ADSCs; conditions: for NURR1 expression level (Image J): ADSCs, 24 hours
Experimental: as §1, §2, §3, §4, §5

CXCR4 = experiment: RT-PCR gene expression of CXCR4 in ligustilide-treated ADSCs; conditions: for CXCR4 expression level (Image J): ADSCs, 24 hours
Experimental: as §1, §2, §3, §4, §5

SDF1αβ = experiment: RT-PCR gene expression of SDF1αβ in ligustilide-treated ADSCs; conditions: for SDF1αβ expression level (Image J): ADSCs, 24 hours
Experimental: as §1, §2, §3, §4, §5

IL-6 = experiment: RT-PCR gene expression of IL-6 in ligustilide-treated ADSCs; conditions: for IL-6 expression level (Image J): ADSCs, 24 hours
Experimental: as §1, §2, §3, §4, §5

IL-8 = experiment: RT-PCR gene expression of IL-8 in ligustilide-treated ADSCs; conditions: for IL-8 expression level (Image J): ADSCs, 24 hours
Experimental: as §1, §2, §3, §4, §5

[1] = ADSCs treated with ligustilide, compared to GAPDH control, in words

Which “gene expression level of BDNF” value (BDNF; [1]) does the source give for `CCC/C=C1\OC(=O)C2=C1CCC=C2` [ligustilide, (Z)-ligustilide] here?
The value was “increased”.

And the “BDNF expression level (Image J)” value (BDNF; 0.625 μg/ml ligustilide)?
Its value is 5411.77.

What about the “BDNF expression level (Image J)” value (BDNF; 1.25 μg/ml ligustilide) of the same compound?
The value was 4915.77.

And the “BDNF expression level (Image J)” value (BDNF; 2.5 μg/ml ligustilide)?
Its value is 7069.72.

And the “BDNF expression level (Image J)” value (BDNF; 5 μg/ml ligustilide)?
The value was 5083.65.

And the “gene expression level of NURR1” value (NURR1; [1])?
Its value is “increased”.

And the “NURR1 expression level (Image J)” value (NURR1; 0.625 μg/ml ligustilide)?
The value was 0.00.

What about the “NURR1 expression level (Image J)” value (NURR1; 1.25 μg/ml ligustilide) of the same compound?
Its value is 0.00.

What about the “NURR1 expression level (Image J)” value (NURR1; 2.5 μg/ml ligustilide) of the same compound?
The value was 6694.43.

And the “NURR1 expression level (Image J)” value (NURR1; 5 μg/ml ligustilide)?
Its value is 3360.55.

What about the “gene expression level of CXCR4” value (CXCR4; [1]) of the same compound?
The value was “increased”.

And the “CXCR4 expression level (Image J)” value (CXCR4; 0.625 μg/ml ligustilide)?
The value was 2744.11.

And the “CXCR4 expression level (Image J)” value (CXCR4; 1.25 μg/ml ligustilide)?
The value was 3719.23.

What about the “CXCR4 expression level (Image J)” value (CXCR4; 2.5 μg/ml ligustilide) of the same compound?
The value was 6539.03.

What about the “CXCR4 expression level (Image J)” value (CXCR4; 5 μg/ml ligustilide) of the same compound?
Its value is 4138.77.

What about the “gene expression level of SDF1αβ” value (SDF1αβ; [1]) of the same compound?
The value was “increased”.

And the “SDF1αβ expression level (Image J)” value (SDF1αβ; 0.625 μg/ml ligustilide)?
Its value is 6766.31.

And the “SDF1αβ expression level (Image J)” value (SDF1αβ; 1.25 μg/ml ligustilide)?
Its value is 4065.23.

And the “SDF1αβ expression level (Image J)” value (SDF1αβ; 2.5 μg/ml ligustilide)?
The value was 4791.36.

What about the “SDF1αβ expression level (Image J)” value (SDF1αβ; 5 μg/ml ligustilide) of the same compound?
The value was 5767.31.

What about the “gene expression level of IL-6” value (IL-6; [1]) of the same compound?
The value was “decreased”.

What about the “IL-6 expression level (Image J)” value (IL-6; 0.625 μg/ml ligustilide) of the same compound?
The value was 7756.00.

And the “IL-6 expression level (Image J)” value (IL-6; 1.25 μg/ml ligustilide)?
Its value is 8204.13.

What about the “IL-6 expression level (Image J)” value (IL-6; 2.5 μg/ml ligustilide) of the same compound?
The value was 5629.93.

And the “IL-6 expression level (Image J)” value (IL-6; 5 μg/ml ligustilide)?
The value was 2804.03.

And the “gene expression level of IL-8” value (IL-8; [1])?
Its value is “decreased”.

What about the “IL-8 expression level (Image J)” value (IL-8; 0.625 μg/ml ligustilide) of the same compound?
The value was 6102.10.

What about the “IL-8 expression level (Image J)” value (IL-8; 1.25 μg/ml ligustilide) of the same compound?
The value was 9691.71.

And the “IL-8 expression level (Image J)” value (IL-8; 2.5 μg/ml ligustilide)?
Its value is 5840.23.

And the “IL-8 expression level (Image J)” value (IL-8; 5 μg/ml ligustilide)?
The value was 3487.33.

From patent publication US9523081B2, “Method for enhancing therapeutic effect of stem cells on autoimmune diseases, cardiovascular diseases, and/or hematological diseases” (GWO XI STEM CELL APPLIED TECHNOLOGY CO., LTD., priority 2014, dated 2016)
